According to patent US4120857A, “Derivatives of 1,2,3,3-tetramethyl-2-azabicyclo[2.2.2]octan-5-endo-ol” (priority 1977, dated 1978):
Read-outs that look alike come from different tables or passages of the source.

Columns and labels:
corneal reflex = assay: Local Anesthetic Test (corneal reflex procedure); type: in vivo, rabbits; conditions: one drop into the conjunctival sac of one rabbit eye; isotonic saline
Protocol: In this test a corneal reflex was elicited in rabbits by lightly touching the cornea with a stiff hair or bristle which normally would cause the rabbit to blink. The assay was carried out using initially a 2% solution or suspension of the test compound in isotonic saline. A cup or pouch was formed of the lower eyelid by pulling down the lower lid, and one drop of the test compound was instilled into the conjunctival sac of one eye. The other eye serves as a control. The corneal reflex was tested every fifteen minutes until the reflex returned to normal. If the reflex could be elicited 3 out of 5 times, then there was considered to be no local anesthetic effect. If the reflex was blocked and the compound was determined to be a local anesthetic, lower concentrations were tested to determine the minimum concentration needed for local anesthetic activity. Results for several of the compounds of the present invention are expressed in the table below as the MEC (minimum effective concentration) or minimum concentration of compound required for local anesthetic activity.

[1] = tested on: ventricular fibrillation by chloroform; assay: Mouse Chloroform Test (antiarrhythmic activity); type: in vivo, female swiss albino mice; conditions: mice; for ED50: Mus musculus, read-out: ED50, dose required to protect 50% of the test animals against development of ventricular fibrillation by chloroform
Protocol: 160:22-30 (1968). The test compounds were administered orally (p.o.) or intraperitoneally (i.p.) to female swiss albino mice weighing 16-24 grams. The arrhythmia induced by the chloroform was monitored by electrocardiogram recording and the normal and abnormal heart beats were tabulated.

[2] = tested on: genetically hypertensive (spontaneously hypertensive) rats of the Okamato strain; assay: Spontaneously Hypertensive Rat Test (antihypertensive activity); type: in vivo; conditions: po, compounds dosed orally, five animals per test dose, read-out: MED (minimum effective dose), dose required to give a minimum of a 20 mm Hg drop in blood pressure from control
Excerpt: Clin. Med. 78:957-962 (1971). Five animals were used for each test dose. Results of the test are expressed in the table below as the MED (minimum effective dose) or dose required to give a minimum of a 20 mm Hg drop in blood pressure from control. | *compounds dosed orally

| SMILES | MEC (minimum effective concentration), minimum concentration of compound required for local anesthetic activity (corneal reflex) [%] | ED50 ([1]; ip) [mg/kg] | ED50 ([1]; po) [mg/kg] | further results |
| --- | --- | --- | --- | --- |
| CN1C(C)(C)[C@H]2CC[C@]1(C)C[C@H]2OC(=O)C(c1ccccc1)c1ccccc1 (relative stereo) [Example 2G, 5-endo-(Diphenylacetoxy)-1,2,3,3-tetramethyl-2-azabicyclo[2.2.2]-octane] | 0.25 | 12.5 | 20 |  |
| CN1C(C)(C)[C@H]2CC[C@]1(C)C[C@H]2OC(=O)Nc1ccccc1 (relative stereo) [Example 5, 5-endo-Phenylcarbamoyloxy-1,2,3,3-tetramethyl-2-azabicyclo[2.2.2]octane] |  |  | 44 |  |
| CN1C(C)(C)[C@H]2CC[C@]1(C)C[C@H]2OCCCNC(=O)C(c1ccccc1)c1ccccc1 (relative stereo) [Example 4, 5-endo-(3-Diphenylacetylaminopropyloxy)-1,2,3,3-tetramethyl-2-azabicyclo[2.2.2]octane] | 0.5 |  | 10 |  |
| CC(=O)O[C@@H]1C[C@@]2(C)CC[C@@H]1C(C)(C)N2C (relative stereo) [Example 1, 5-endo-Acetoxy-1,2,3,3-tetramethyl-2-azabicyclo[2.2.2]-octane] |  |  |  | minimal effective dose [2]: 12.5 mg/kg |
| COc1cc(C(=O)O[C@@H]2C[C@@]3(C)CC[C@@H]2C(C)(C)N3C)cc(OC)c1OC (relative stereo) [Example 2C, 5-endo-(3,4,5-Trimethoxybenzoyl-oxy)-1,2,3,3-tetramethyl-2-azabicyclo[2.2.2]octane] |  | 50 |  |  |
| CN1C(C)(C)[C@H]2CC[C@]1(C)C[C@H]2OCCCNC(=O)c1ccccc1 (relative stereo) [Example 3, 5-endo-(3-Benzoylaminopropyloxy)-1,2,3,3-tetramethyl-2-azabicyclo[2.2.2]octane] | 0.5 |  | 10 |  |
| CCCC(=O)O[C@@H]1C[C@@]2(C)CC[C@@H]1C(C)(C)N2C (relative stereo) [Example 2D, 5-endo-Butyryloxy-1,2,3,3-tetramethyl-2-azabicyclo[2.2.2]-octane] |  |  | 80 |  |
| CN1C2(C)CCC(C(OC(=O)c3ccccc3)C2)C1(C)C (stereo not drawn) [Example 2B, 5-endo-Benzoyloxy-1,2,3,3-tetramethyl-2-azabicyclo(2.2.2]-octane] |  |  |  | ED50, dose required to protect 50% of the test animals against development of ventricular fibrillation by chloroform ([1]; i.p.): 50 mg/kg |
| CN1C(C)(C)[C@H]2CC[C@]1(C)C[C@H]2OC(=O)C1CC1 (relative stereo) [Example 2A, 5-endo-Cyclopropylcarbonyloxy-1,2,3,3-tetramethyl-2-azabicyclo-[2.2.2]octane] |  |  |  | minimal effective dose [2]: 25 mg/kg |
| CN1C(C)(C)[C@H]2CC[C@]1(C)C[C@H]2OC(=O)c1ccc(N)cc1 (relative stereo) [Example 2F, 5-endo-(p-Aminobenzoyloxy)-1,2,3,3-tetramethyl-2-azabicyclo-[2.2.2]octane] | 2.0 | 6.3 | 25 |  |
